These results are taken from ChEMBL document CHEMBL5385850, “Identification of novel aza-analogs of TN-16 as disrupters of microtubule dynamics through a multicomponent reaction” (Eur J Med Chem, 2023).

As usually defined, the EC50 is the concentration giving half of the maximal effect.

The test system of assay [1] is SH-SY5Y. Kind of assay: Cytotoxicity against human SH-SY5Y cells incubated for 48 hrs by MTT assay. In kind it is functional, cell-based. (In general: Formazan colour is commonly taken as a measure of viable cells.)
Assay [2] relates to SH-SY5Y. Kind of assay: Upregulation of tubulin acetylation in human SH-SY5Y cells at 1 uM measured after 16 hrs by Western blot analysis. In kind it is functional, cell-based. A general note: Immunoblotting shows a protein as a band on a membrane.
In assay [3] the test system is SH-SY5Y. Put plainly: Induction of cell cycle arrest in human SH-SY5Y cells assessed as accumulation of cells at G2/M phase at 1 uM measured after 16 hrs by PI staining based flow cytometry analysis. Type of assay: functional. A general note: Flow cytometry measures light scatter and fluorescence of single cells or particles in a stream.
Assay [4] concerns SH-SY5Y. Kind of assay: Upregulation of tubulin acetylation in human SH-SY5Y cells at 300 nM by immunofluorescence assay. Type of assay: functional, cell-based.
Assay [5] concerns SH-SY5Y. Kind of assay: Upregulation of tubulin acetylation in human SH-SY5Y cells at 100 to 1000 nM measured after 16 hrs by Western blot analysis. In kind it is functional, cell-based. The note with it: dose 100-1000 nM.
For assay [6], the target named is T1, Tubulin (Homo sapiens) (UniProt P68371+Q9H4B7+P0DPH7+P68366+Q13509+Q71U36+P04350+Q3ZCM7+P07437+P68363+Q9BQE3+Q6PEY2+Q13885+Q9BVA1+Q9BUF5). Put plainly: Inhibition of tubulin polymerization in human SH-SY5Y cells assessed as decrease in depolymerized tubulin to polymerized tubulin ratio at 1 uM measured after 16 hrs by Western blot analysis. In kind it is cell-based.

The target of assay [7] is T1, Tubulin (Homo sapiens). Kind of assay: Inhibition of tubulin polymerization (unknown origin) at 1 to 30 uM measured every 60 secs for 1 hr by fluorescence based analysis. In kind it is protein-complex assay. The note with it: dose 1-30 µM, time 60.0 sec.
Assay [8] deals with T1, Tubulin (Homo sapiens). Put plainly: Inhibition of tubulin polymerization in human SH-SY5Y cells assessed as disappearance of tubulin network structure at 3 times EC50 measured after 16 hrs by immunofluorescence assay. In kind it is cell-based.
The test system of assay [9] is SH-SY5Y. Kind of assay: Cytotoxicity against human SH-SY5Y cells at 1 uM incubated for 72 hrs by MTT assay relative to control. In kind it is functional.
Assay [10] addresses T1, Tubulin (Homo sapiens). Put plainly: Inhibition of tubulin polymerization in human SH-SY5Y cells assessed as decrease in depolymerized tubulin to polymerized tubulin ratio at 100 nM measured after 16 hrs by Western blot analysis. Type of assay: cell-based.
The test system of another assay is MDA-MB-231. Put plainly: Cytotoxicity against human MDA-MB-231 cells incubated for 48 hrs by MTT assay. In kind it is functional, cell-based.
A further assay deals with MCF7. Put plainly: Cytotoxicity against human MCF7 cells incubated for 48 hrs by MTT assay. Type of assay: functional, cell-based.
For assay [11], the system named is SH-SY5Y. Put plainly: Upregulation of tubulin acetylation in human SH-SY5Y cells at 200 nM by immunofluorescence assay. Type of assay: functional, cell-based.
For assay [12], the system named is SH-SY5Y. Put plainly: Upregulation of tubulin acetylation in human SH-SY5Y cells at 70 to 350 nM measured after 16 hrs by Western blot analysis. In kind it is functional, cell-based. The note with it: dose 70-350 nM.
Assay [13] deals with T1, Tubulin (Homo sapiens). Kind of assay: Inhibition of tubulin polymerization (unknown origin) measured every 60 secs for 1 hr by fluorescence based analysis. Type of assay: protein-complex assay. Particulars: dose 1-10 µM.
A further assay relates to HeLa. Kind of assay: Cytotoxicity against human HeLa cells incubated for 48 hrs by MTT assay. In kind it is functional, cell-based.

Active and inactive are the calls of the source. The calls are words filed in the database; no cut-off is given here.

For the compound `C/C(Nc1cccc(Oc2ccccc2)c1)=C1/C(=O)NN(Cc2ccccc2)C1=O`, the 50% effective concentration (EC50) with SH-SY5Y [1] worked out at 0.895 µM. The result with SH-SY5Y [2] and with SH-SY5Y [3] was Active.

`C#CCOc1cccc(N/C(C)=C2\C(=O)NN(Cc3ccccc3)C2=O)c1`: the outcome with SH-SY5Y [4], in the assay on SH-SY5Y [5] and in the assay on SH-SY5Y [3] was Active. The inhibition result at Tubulin (Homo sapiens) [6] and on Tubulin (Homo sapiens) [8] was “inactive” throughout. In the assay on SH-SY5Y [1], a half-maximal response (EC50) required 0.102 µM. On Tubulin (Homo sapiens) [7], the inhibition result was “Active”.

As for `C/C(Nc1ccccc1)=C1/C(=O)NN(Cc2ccccc2)C1=O`, the Activity in the assay on SH-SY5Y [9] is 36.2%.

Turning to `CC(=O)O[C@H]1C(=O)[C@@]2(C)[C@H]([C@H](OC(=O)c3ccccc3)[C@]3(O)C[C@H](OC(=O)[C@H](O)[C@@H](NC(=O)c4ccccc4)c4ccccc4)C(C)=C1C3(C)C)[C@]1(OC(C)=O)CO[C@@H]1C[C@@H]2O`, at Tubulin (Homo sapiens) [10], the inhibition entry is “Active”.

Consider `O=C1N[C@@H](Cc2ccccc2)C(=O)/C1=C/Nc1ccccc1`, for which the Activity in the assay on SH-SY5Y [9] is recorded as 70.3%.

For the compound `COc1ccc(/C=C\c2cc(OC)c(OC)c(OC)c2)cc1O`, the outcome in the assay on MDA-MB-231 and with MCF7 was inactive.

On to `C#CCCOc1cccc(N/C(C)=C2\C(=O)NN(Cc3ccccc3)C2=O)c1`, for which the EC50 in the assay on SH-SY5Y [1] stood at 0.79 µM. In addition, in the assay with SH-SY5Y [2], the outcome was Active.

In the assay on SH-SY5Y [9], `C/C(Nc1ccccc1)=C1/C(=O)N[C@@H](Cc2ccccc2)C1=O` gave an Activity of 34.7%. Further, the result in the assay on SH-SY5Y [11], with SH-SY5Y [12], in the assay on HeLa and in the assay with SH-SY5Y [3] was Active. The inhibition entry at Tubulin (Homo sapiens) [6] and on Tubulin (Homo sapiens) [8] was “inactive” in each case. In the assay with SH-SY5Y [1], this compound registered a concentration for a half-maximal effect (EC50) of 0.068 µM. Further, the inhibition result on Tubulin (Homo sapiens) [13] is “Dose-Dependent Effect”. In addition, the result in the assay with MDA-MB-231, with SH-SY5Y [2] and in the assay on MCF7 was inactive.

On to `CN(/C=C1\C(=O)N[C@@H](Cc2ccccc2)C1=O)c1ccccc1`, for which the Activity in the assay with SH-SY5Y [9] is reported as 112.4%.

In turn, `C/C(Cc1ccccc1)=C1/C(=O)N[C@@H](Cc2ccccc2)C1=O` yielded an Activity in the assay on SH-SY5Y [9] of 100.7%.
